Where two headings read alike, the source gives them in different places.
Molecular target: eIF4E (Homo sapiens (Human), UniProt P06730)
Experiment: TR-FRET assay for competitive binding of cap analogs to eIF4E
Text: His tagged eIF4E protein was purchased from Fitzgerald Industries International (80R-125; Acton, Mass.) and tRNA was purchased from SIGMA (R5636; St. Louis, Mo.). A biotinylated 20 nucleotide RNA oligo (5′Phos/rGrGrA rCrCrC rCrUrC rUrCrC rCrUrC rCrCrC rCrC biotin-3′) was purchased from Integrated DNA Technologies (Coralville, Iowa). Europium labelled anti his antibody was purchased from Perkin Elmer (ADOI 10; Waltham, Mass.) and streptavidin conjugated alexa fluor 647 was purchased from Life Technologies (S32357; Grand Island, N.Y.).
The TR-FRET assay was performed in an assay buffer of PBS (pH 7.4), 0.02% Tween, and 0.1% BSA using four separate addition steps. Initially, 5 μl of His-eIF4E (10 nM) and tRNA (0.1 mg/ml) were added into a black walled 384 well small volume plate. Next, 1 al/well of freshly diluted compound was added using the Beckman Coulter Biomek FX liquid dispenser with a final DMSO concentration of 1%. The compound and eIF4E were allowed to bind for 15 minutes at room temperature. The third addition consisted of adding 4 μl of chemically capped 7mGDP imidazole mRNA-biotin (10 nM) into every well, with the exception of one column containing only buffer to use as a background control. The binding reaction was incubated for one hour at room temperature. Finally, 5 al of the europium-labeled anti-His antibody (10 nM) and streptavidin conjugated alexa fluor 647 (10 nM) TR-FRET detection reagents were added to each well and allowed to incubate at room temperature protected from light for 1 h. The plates were read on the Envision plate reader (Perkin-Elmer) to measure signals from both the Alexa fluor (665 nm) and the europium (615 nm). A ratio of the alexa fluor and europium fluorescence as a function of cap analog concentration was calculated for data analysis and data were fit to a standard EC50 inhibition curve in Graph Pad.

[1] = N^7-alkylated GMP derivatives, competition with capped 7mGDP mRNA-biotin, single measurement unless footnoted as average, read-out: AC50

Chain of eIF4E (P06730 whole entry): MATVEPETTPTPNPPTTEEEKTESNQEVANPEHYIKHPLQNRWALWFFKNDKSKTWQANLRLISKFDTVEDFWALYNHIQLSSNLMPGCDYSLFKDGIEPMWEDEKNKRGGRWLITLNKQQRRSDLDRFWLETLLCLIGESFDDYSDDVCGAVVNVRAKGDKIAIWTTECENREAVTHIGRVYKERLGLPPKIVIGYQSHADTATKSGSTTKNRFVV

In the case of Nc1nc([O-])c2c(n1)n([C@@H]1O[C@H](COP(=O)(O)OP(=O)(O)O)[C@@H](O)[C@H]1O)c[n+]2C(c1ccccc1)c1ccccc1 [Example 16], the AC50 (N7-alkylated GDP derivatives, single measurement unless noted (a = average over 2 measurements), read-out: AC50/μM) is reported as 47.1 µM.

In the case of CCc1ccc(-c2ccc(C(C)=O)cc2)cc1 [Example 60], the AC50 [1] is reported as > 100 µM.

CCc1ccc(-c2nc(C)no2)cc1 [Example 61] gave an AC50 [1] of 16.7 µM.

For CCc1ccc(-c2ccccc2OC)cc1 [Example 62], the AC50 [1] was > 100 µM.

In the case of CCc1ccc(-c2noc(C)n2)cc1 [Example 63], the AC50 [1] is reported as > 100 µM.

CCc1ncc(-c2ccc(F)cc2)o1 [Example 64] was tested, and the AC50 [1] was > 100 µM.

CCc1ccc(-c2ccccc2)cc1 [Example 65] showed an AC50 [1] of 29 µM.

Compound CCc1ccc(-c2cccs2)nc1 [Example 66] has an AC50 [1] of 5.91 µM.

CCc1ccc(-c2ccsc2)cc1 [Example 67] was tested, and the AC50 [1] was 2.69 µM.

With CCc1nc2ccccc2s1 [Example 68] the AC50 [1] was 52.9 µM.

CCc1cc2ccccc2s1 [Example 69] was tested, and the AC50 [1] was 63.2 µM.

With CCc1ccc2nonc2c1 [Example 70] the AC50 [1] was 23.7 µM.

In the case of CCc1nc2ccccc2n1C [Example 71], the AC50 [1] is reported as > 100 µM.

With CCc1cccc2c1cnn2C [Example 72] the AC50 [1] was > 100 µM.

With CCc1ccc2cnn(C)c2c1 [Example 73] the AC50 [1] was > 100 µM.

For CCc1ccc2c(cnn2C)c1 [Example 74], the AC50 [1] was > 100 µM.
